Laboratory results published in US9242984B2, “Pyrazolyl derivatives as Syk inhibitors” (Merck Sharp & Dohme Corp., priority 2012, dated 2016).

molecular target: T1, recombinant human Syk (GST-hSyk fusion protein) (Homo sapiens, UniProt P43405); test: Homogeneous Time-Resolved Fluorescence (HTRF) assay for the recombinant human Syk enzyme; format: biochemical; settings: 10-dose titration, 25 μM ATP; read-out: rhSYK IC50
T1 construct: purchased Carna Biosciences 08-176
Summary of the method: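 IC50 came from a four-parameter fit over ten doses, 10 μM to 0.508 nM, with HTRF read-out (Eu-anti-pTyr antibody, SA-APC, EDTA stop, 30 min). The enzyme, 5 pM GST-hSyk, met compound for 10 min, then phosphorylated 250 nM biotin-peptide with 25 μM ATP and 5 mM Mg for 45 min at room temperature, pH 7.5.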

Row | IC50 [µM] | SMILES
1 | 0.0062 | Cc1cc(Nc2nccc(C3CC3)n2)cc(-c2cnn(C[C@@H](O)C(=O)O)c2)c1 [Example 11.1, (R)-3-(4-(3-(4-cyclopropylpyrimidin-2-ylamino)-5-methylphenyl)-1H-pyrazol-1-yl)-2-hydroxypropanoic acid]

same assay, conditions: IC50 class; 10-dose titration, 25 μM ATP; read-out: rhSYK Activity

Row | SMILES | IC50 [µM]
2 | Cc1ccnc(Nc2cccc(-c3cnn(C[C@](C)(O)CO)c3)c2)n1 [Example 2.95, (2S)-2-methyl-3-(4-{3-[(4-methylpyrimidin-2-yl)amino]phenyl}-1H-pyrazol-1-yl)propane-1,2-diol] | 0.1 to 1
3 | Cc1cc(Nc2nccc(C(F)F)n2)cc(-c2cnn(Cc3cc[nH]c(=O)c3)c2)c1 [Example 2.72, 4-{[4-(3-{[4-(difluoromethyl)pyrimidin-2-yl]amino}-5-methylphenyl)-1H-pyrazol-1-yl]methyl}pyridin-2(1H)-one] | ≤ 0.1
4 | Cc1cc(Nc2nccc(C(F)(F)F)n2)cc(-c2cnn(CC3NC(=O)OC3C)c2)c1 (stereo not shown) [Example 3.127, 5-methyl-4-{[4-(3-methyl-5-{[4-(trifluoromethyl)pyrimidin-2-yl]amino}phenyl)-1H-pyrazol-1-yl]methyl}-1,3-oxazolidin-2-one] | ≤ 0.1
5 | Cc1cc(Nc2nccc(C(F)F)n2)cc(-c2cnn(C[C@H]3CNCCO3)c2)c1 [Example 2.84, 4-(difluoromethyl)-N-(3-methyl-5-{1-[(2R)-morpholin-2-ylmethyl]-1H-pyrazol-4-yl}phenyl)pyrimidin-2-amine] | ≤ 0.1
6 | Cc1cc(Nc2nccc(OCCO)n2)cc(-c2cnn(CCC(N)=O)c2)c1 [Example 3.38, 3-[4-(3-{[4-(2-hydroxyethoxy)pyrimidin-2-yl]amino}-5-methylphenyl)-1H-pyrazol-1-yl]propanamide] | ≤ 0.1
7 | Cc1cc(Nc2nccc(OCCO)n2)cc(-c2cnn(C[C@H](O)C(N)=O)c2)c1 [Example 6.2, (2S)-2-hydroxy-3-[4-(3-{[4-(2-hydroxyethoxy)pyrimidin-2-yl]amino}-5-methylphenyl)-1H-pyrazol-1-yl]propanamide] | ≤ 0.1
8 | Cc1cc(Nc2nccc(C(F)F)n2)cc(-c2cnn(CC3CCNC(=O)O3)c2)c1 (stereo not shown) [Example 2.81, 6-{[4-(3-{[4-(difluoromethyl)pyrimidin-2-yl]amino}-5-methylphenyl)-1H-pyrazol-1-yl]methyl}-1,3-oxazinan-2-one] | ≤ 0.1
9 | Cc1cc(Nc2cc(C(F)F)ccn2)nc(-c2cnn(C(C)C3CNC(=O)C3)c2)c1 (stereo not shown) [Example 1.66, 4-{1-[4-(6-{[4-(difluoromethyl)pyridin-2-yl]amino}-4-methylpyridin-2-yl)-1H-pyrazol-1-yl]ethyl}pyrrolidin-2-one] | ≤ 0.1
10 | Cc1cc(Nc2nccc(C(F)(F)F)n2)cc(-c2cnn(C[C@@H]3COC(=O)N3)c2)c1 [Example 3.97, (4R)-4-{[4-(3-methyl-5-{[4-(trifluoromethyl)pyrimidin-2-yl]amino}phenyl)-1H-pyrazol-1-yl]methyl}-1,3-oxazolidin-2-one] | ≤ 0.1
11 | Cc1cc(Nc2nccc(C(F)(F)F)n2)cc(-c2cnn(CC(C)(O)C(N)=O)c2)c1 (single isomer, unassigned) [Example 8.14, 2-hydroxy-2-methyl-3-[4-(3-methyl-5-{[4-(trifluorometh-yl)pyrimidin-2-yl]amino}phenyl)-1H-pyrazol-1-yl]propanamide] | ≤ 0.1
12 | CCNC(=O)NCCn1cc(-c2cc(C)cc(Nc3nccc(C(F)F)n3)c2)cn1 [Example 27.16, 1-{2-[4-(3-{[4-(difluoromethyl)pyrimidin-2-yl]amino}-5-methylphenyl)-1H-pyrazol-1-yl]ethyl}-3-ethylurea] | ≤ 0.1
13 | Cc1cc(Nc2nccc(C(F)(F)F)n2)cc(-c2cnn(CC(O)COC(C)C)c2)c1 (stereo not shown) [Example 5.7, 1-(1-methylethoxy)-3-[4-(3-methyl-5-{[4-(trifluoro-methyl)pyrimidin-2-yl]amino}-phenyl)-1H-pyrazol-1-yl]propan-2-ol] | ≤ 0.1
14 | Cc1cc(Nc2nccc(C(F)(F)F)n2)cc(-c2cnn(CC(=O)N3CCCC3)c2)c1 [Example 3.27, N-{3-methyl-5-[1-(2-oxo-2-pyrrolidin-1-ylethyl)-1H-pyrazol-4-yl]phenyl}-4-(trifluoromethyl)pyrimidin-2-amine] | ≤ 0.1

Next, values leading:

Row | IC50 [µM] | SMILES
15 | ≤ 0.1 | Cc1cc(Nc2nccc(C(F)F)n2)cc(-c2cnn(CC(O)C(F)(F)F)c2)c1 (stereo not shown) [Example 5.24, 3-[4-(3-{[4-(difluoromethyl)pyrimidin-2-yl]amino}-5-methylphenyl)-1H-pyrazol-1-yl]-1,1,1-trifluoropropan-2-ol]
16 | ≤ 0.1 | Cc1cc(Nc2nccc(C(F)F)n2)cc(-c2cnn(CC3(C)CNC(=O)O3)c2)c1 (stereo not shown) [Example 3.123, 5-{[4-(3-{[4-(difluoromethyl)pyrimidin-2-yl]amino}-5-methylphenyl)-1H-pyrazol-1-yl]methyl}-5-methyl-1,3-oxazolidin-2-one]
17 | ≤ 0.1 | Cc1cc(Nc2nccc(C(F)F)n2)cc(-c2cnn(Cc3ccc(=O)[nH]c3)c2)c1 [Example 3.95, 5-{[4-(3-{[4-(difluoromethyl)pyrimidin-2-yl]amino}-5-methylphenyl)-1H-pyrazol-1-yl]methyl}pyridin-2(1H)-one]
18 | ≤ 0.1 | Cc1cc(Nc2nccc(C(F)F)n2)cc(-c2cnn(C(C)C3CNC(=O)O3)c2)c1 (stereo not shown) [Example 3.91, 5-{1-[4-(3-{[4-(difluoromethyl)pyrimidin-2-yl]amino}-5-methylphenyl)-1H-pyrazol-1-yl]ethyl}-1,3-oxazolidin-2-one]
19 | ≤ 0.1 | Cc1cc(Nc2nccc(C(F)F)n2)cc(-c2cnn(CC(O)CF)c2)c1 (stereo not shown) [Example 5.19, 1-[4-(3-{[4-(difluoromethyl)pyrimidin-2-yl]amino}-5-methylphenyl)-1H-pyrazol-1-yl]-3-fluoropropan-2-ol]
20 | ≤ 0.1 | Cc1cc(Nc2nccc(C(F)(F)F)n2)cc(-c2cnn(CC(=O)N3[C@H](C)COC[C@H]3C)c2)c1 [Example 3.15, N-[3-(1-{2-[(3r,5r)-3,5-dimethylmorpholin-4-yl]-2-oxoethyl}-1H-pyrazol-4-yl)-5-methylphenyl]-4-(trifluoromethyl)-pyrimidin-2-amine]
21 | ≤ 0.1 | C[C@@](O)(CO)Cn1cc(-c2cccc(Nc3nccc(C(F)F)n3)c2)cn1 [Example 2.92, (2S)-3-[4-(3-{[4-(difluoromethyl)pyrimidin-2-yl]amino}phenyl)-1H-pyrazol-1-yl]-2-methylpropane-1,2-diol]
22 | ≤ 0.1 | Cc1cc(Nc2nccc(C(F)(F)F)n2)cc(-c2cnn(C(C)C(O)C(N)=O)c2)c1 (stereo not shown) [Example 7.6, 2-hydroxy-3-[4-(3-methyl-5-{[4-(trifluorometh-yl)pyrimidin-2-yl]amino}-phenyl)-1H-pyrazol-1-yl]butanamide]
23 | ≤ 0.1 | Cc1cc(Nc2nccc(C(F)(F)F)n2)cc(-n2cc(C(C)(O)c3ccc(C(=O)O)cc3)cn2)c1 (single isomer, unassigned) [Example 19.8, 4-{1-hydroxy-1-[1-(3-methyl-5-{[4-(trifluoromethyl)pyrimidin-2-yl]amino}phenyl)-1H-pyrazol-4-yl]ethyl}benzoic acid]
24 | ≤ 0.1 | Cc1cc(Nc2nccc(C(F)(F)F)n2)cc(-c2cnn(CC(O)C(F)(F)F)c2)c1 (single isomer, unassigned) [Example 3.44, 1,1,1-trifluoro-3-[4-(3-methyl-5-{[4-(trifluoromethyl)pyrimidin-2-yl]amino}phenyl)-1H-pyrazol-1-yl]propan-2-ol]
25 | ≤ 0.1 | Cc1cc(Nc2nccc(C3CC3)n2)cc(-c2cnn(C[C@@H](O)C(=O)O)c2)c1 [Example 11.1, (R)-3-(4-(3-(4-cyclopropylpyrimidin-2-ylamino)-5-methylphenyl)-1H-pyrazol-1-yl)-2-hydroxypropanoic acid]
